{"source": "patent US20220073553A1", "about": "“METHOD FOR EXTRACTING HIGH-PURITY POLYDEOXYRIBONUCLEOTIDE FROM SALMON TESTES” (Bio Medi pharm Co. Ltd., priority 2020, published 2022)", "test_system": "sperm from regions of salmon testes", "test": "Motility of sperm from regions of salmon testes after hormone treatment", "format": "cell-based", "settings": "regions C of testes of male salmon caught in a river in October; treated with different types of hormones", "experimental": "The immature testicular regions A, B, and C are ground and diluted with an artificial seminal plasma. The grinding is performed by the following procedure. First, the testes are cut into small pieces with scissors such that the membranes surrounding the spermatids of the testes are peeled off. […] Here, care should be taken because a high speed of the impeller causes cell disruption, increasing the possibility that impurities may increase. Immature regions (except for regions D where semen leaks out, see FIG. 4) were collected by cutting the testes of male salmon. […] Regions C of the testes of male salmon caught in a river in October were treated with three different types of hormones: hGC, luteinizing hormone-releasing hormone (LhRH), and DHP.", "note": "Values joined by “and” are separate entries in the source; they are usually repeats but may differ in a detail not shown here. Equal values may be shown once. No end group written: not given here.", "data": [{"substance": "luteinizing hormone-releasing hormone (QHWSYGLRPG; ends and bridges not checked; UniProt P01148 24-33, looked up) [LhRH, hormone used for comparison with hCG]", "values": [{"measurement": "Sperm motility (%)", "value": "5% and 5 ± 2.8%"}]}]}
